According to patent publication US20040136985A1, “Methods of modifying behavior of CD9-expressing cells” (priority 2002, published 2004):
Entries after “also recorded” stand apart in the source; their conditions may differ. Read-outs that look alike come from different tables or passages of the source. Where no end group is shown, it is not given here.

Legend:
[1] = test system: mAb7 binding to CD9 expressed on CHO A6 cells; test: Flow cytometry: peptide blocking of mAb7 binding to CD9 on CHO A6 cells; parameters: species or system human; details: 100 μg peptide with 1 μg mAb7
Method: 100 μg of peptide 5a, 5, 5b, or 6a was incubated with 1 μg mAb7 for 30 minutes at room temperature. CD9 CHO cells (clone A6) were harvested, washed twice with PBS, and resuspended in labeling media (2.5×10^5 cells/mL); 4 μL mAb7-peptide solution was added to 2.5×10^5 cells and incubated for 1 hour at 4° C. MOPC2, and mAb7 alone were used as negative and positive controls, respectively. Cells were washed with PBS, resuspended in labeling media, and bound mAb7 was detected with a species-specific FITC-conjugated second antibody, followed by flow cytometry as described above.

CHO A6 cells = test: Basic adhesion assay of CHO A6 cells on FN; assay type: cell-based; details: 0.5 μM peptide, 3 hours
Method: 24-well culture plate wells were coated with human plasma FN (10 μg/mL FN in PBS for 3 hours at 37° C.) and blocked with PBS, 3% bovine serum albumin (BSA) for 1 hour at 37° C. Mock- and CD9-CHO cells were harvested as described previously. After a 30-minute rest period at 37° C., 10^5 cells/well were seeded in FN-coated 24-well plates and incubated for 3 hours at 37° C. For some experiments, cells were incubated in the presence of 0.5 μM of peptides corresponding to amino acid sequences of CD9 EC2. Wells were washed 4 times with adhesion media, stained with modified Wright Giemsa, and adherent cells were counted in five randomly selected high-power fields of view per well using an inverted phase contrast microscope, Olympus IMT-2 (Olympus, Lake Success, N.Y.). All assays were run in triplicate, and the cell counts were reported as the number of adherent cells/mm^2 of well surface area. The mean number of adherent cells/mm^2±SE of 3 independent assays were reported (n=45).

FN [2] = test: ELISA for fibronectin binding to immobilized CD9, His6-rCD9 or peptide; parameters: species or system human; details: for soluble FN binding to immobilized peptide compared to intact platelet purified CD9: FN 75 μg/ml
Method: (§1) All incubation periods for the CD9/FN binding ELISA lasted two hours at RT unless otherwise indicated. Immulon I (Dynatech) microtiter plate wells were coated with CD9 (2 μg/ml), His6-rCD9 (2 μg/ml), BSA (10 μg/ml), or peptide (10 μM) in Buffer A. After one wash with Buffer B, plates were blocked with Blocking Buffer 1.1% BSA was included in steps from ligand overlay to addition of mAb conjugate to minimize non-specific binding. Titrations of human plasma FN in Buffer B were added to plates either alone, or in the case of competition ELISAs, with 0-160 μM synthetic peptide. Plates were washed three times with ELISA Buffer B, followed by incubation with a 1/1000 dilution of rabbit anti-FN antibody. After two washes with Buffer B and one wash with Buffer C, plates were incubated with 1/500 antirabbit IgG alkaline phosphatase in Buffer C for one hour at RT. After four washes with Buffer C, 1 mg/mlp-nitrophenyl phosphate substrate was added and the absorbance at 405 nm was recorded.

human coronary SMCs [3] = test: Verification that hydroxyurea prevents SMC proliferation (thymidine incorporation); assay type: cell-based; details: 5 mM hydroxyurea
Method: (§2) Cell migration was measured via a monolayer-wounding assay, as described by Brown et al. (Circ Res. 84:655-667 (1999), which is hereby incorporated by reference in its entirety). Briefly, 100% confluent cells were treated with serum-free medium containing hydroxyurea (5 mM)(DMEM supplemented with 100 U/mL penicillin, 100 μg/mL streptomycin and 5 mM hydroxyurea) for 24 h before the start of experiments. Hydroxyurea was used to prevent cell proliferation and block the possible effect of CD9 on SMCs proliferation. The capacity of hydroxyurea to prevent proliferation was verified by showing that it inhibited thymidine incorporation by >99%. After incubation with hydroxyurea, cells were rinsed with DMEM (serum free), and a ≈1 mm wide scratch was made with a sterile 20 ul tip with the help of a ruler. After that, the cells were incubated in the DMEM medium. […] Plates were rinsed twice with PBS, and analyzed via computerized image analysis system (scion Image CMS-800). Cell migration was expressed as the distance migrated in the 24 hours (Chang et al., Circ. Res. 91(5):390-397 (2002), which is hereby incorporated by reference in its entirety). […]

FN [4] = biological target: FN (Homo sapiens, UniProt P02751); test: Surface plasmon resonance biosensor analysis of FN captured by anti-FN mAbs; assay type: binding
FN-CD9 binding = test: Competition ELISA: effect of peptides on FN binding to immobilized CD9; parameters: species or system human
Method: as §1

CD9-CHO-B2 cells = test: Adhesion of CD9-CHO-B2 cells (lacking integrin α5β1) to FN, peptide inhibition; assay type: cell-based; details: peptide 0.5 μM
Method: CHO cell adhesion assays were done as described by Cook et al. (Exp. Cell. Res. 251:356-371 (1999), which is hereby incorporated by reference in its entirety). Briefly, 24-well cell culture plates (Coming, Acton, Mass.) were coated with FN (10 μg/ml) and blocked with PBS, 3% BSA. CHO cells were cell synchronized, harvested, and resuspended at 1×10^5 cell/ml in adhesion media (RPMI, 1% BSA). For peptide inhibition studies, peptides were added to CHO cell suspension to give a final concentration of 0.5 μM and cells were incubated at 37° C. for 30 minutes. 1 ml CHO cell suspension was added to each well and CHO cells were allowed to adhere for either 3 or 6 hours, then adherent cells were stained with Wright Giemsa and counted.

CD9-CHO cells = assay type: cell-based; details: FN coated inserts blocked with peptide (0.5 μM)
Method: The motility assays were performed using two methodologies. The first method was modified from Bauer et al. (J. Cell. Biol. 116:477-487 (1992), which is hereby incorporated by reference in its entirety). Cell cycle synchronized CHO cells were seeded into tissue culture plates, grown to approximately 50% confluency, and harvested. The cells were washed twice with Media A, adjusted to 4×10^5/ml, allowed to rest at 37° C. for 30 min in Media B, then transferred into modified Boyden chambers. The upper and lower chambers were separated by a polycarbonate filter, with 8 μm pores, pre-coated on the underside only with 10 μg/ml FN. After 3 or 6 hours, cells on the FN-coated side of the filters were fixed, stained with hematoxylin, and mounted onto slides. The total numbers of adherent cells from five high-powered fields (HPF) per filter were counted per time point per assay. The second method for assessing the motility of CD9-transfected CHO cells utilized 10 mm polycarbonate tissue culture inserts with 8 μm pores (Nunc, Rochester, N.Y.). Tissue culture inserts were coated on the underside with FN as described above for Boyden Chambers. […] CHO cells adhered to the FN-coated underside of tissue culture inserts were stained with Wrights Giemsa and the number of adherent cells in five random high power fields were counted per time point per assay. […]

human coronary SMCs [5] = test: SMC migration, monolayer-wounding assay; assay type: cell-based; details: 2% serum, 24 h
Method: as §2

FN/CD9 interaction = test: ELISA modified for effects of metal salts on the FN/CD9 interaction; assay type: binding, human; details: 0-4.5 mM metal salt
Method: The standard ELISA assay format was modified to evaluate the effects of divalent and monovalent metal salts on the FN/CD9 interaction. The ELISA buffers contained 0.5 mM EGTA and metal salt was excluded from antigen plating and primary wash step. Antigen was plated in Buffer D. The plates were washed once with Buffer E and then blocked with Blocking Buffer 2. Subsequent steps up to and including the second wash after the FN overlay were done in Buffer F, which contained 0-4.5 mM metal salt. After the FN overlay, plates were washed once with Buffer F (+/−metal salt), then twice with Buffer G. The subsequent incubations and washes were performed with Buffer G.

[6] = FN concentration, 2.5 mM Ca2+, read-out: half maximal binding with FN

FN (Homo sapiens, UniProt P02751), sequence (P02751 32-2477): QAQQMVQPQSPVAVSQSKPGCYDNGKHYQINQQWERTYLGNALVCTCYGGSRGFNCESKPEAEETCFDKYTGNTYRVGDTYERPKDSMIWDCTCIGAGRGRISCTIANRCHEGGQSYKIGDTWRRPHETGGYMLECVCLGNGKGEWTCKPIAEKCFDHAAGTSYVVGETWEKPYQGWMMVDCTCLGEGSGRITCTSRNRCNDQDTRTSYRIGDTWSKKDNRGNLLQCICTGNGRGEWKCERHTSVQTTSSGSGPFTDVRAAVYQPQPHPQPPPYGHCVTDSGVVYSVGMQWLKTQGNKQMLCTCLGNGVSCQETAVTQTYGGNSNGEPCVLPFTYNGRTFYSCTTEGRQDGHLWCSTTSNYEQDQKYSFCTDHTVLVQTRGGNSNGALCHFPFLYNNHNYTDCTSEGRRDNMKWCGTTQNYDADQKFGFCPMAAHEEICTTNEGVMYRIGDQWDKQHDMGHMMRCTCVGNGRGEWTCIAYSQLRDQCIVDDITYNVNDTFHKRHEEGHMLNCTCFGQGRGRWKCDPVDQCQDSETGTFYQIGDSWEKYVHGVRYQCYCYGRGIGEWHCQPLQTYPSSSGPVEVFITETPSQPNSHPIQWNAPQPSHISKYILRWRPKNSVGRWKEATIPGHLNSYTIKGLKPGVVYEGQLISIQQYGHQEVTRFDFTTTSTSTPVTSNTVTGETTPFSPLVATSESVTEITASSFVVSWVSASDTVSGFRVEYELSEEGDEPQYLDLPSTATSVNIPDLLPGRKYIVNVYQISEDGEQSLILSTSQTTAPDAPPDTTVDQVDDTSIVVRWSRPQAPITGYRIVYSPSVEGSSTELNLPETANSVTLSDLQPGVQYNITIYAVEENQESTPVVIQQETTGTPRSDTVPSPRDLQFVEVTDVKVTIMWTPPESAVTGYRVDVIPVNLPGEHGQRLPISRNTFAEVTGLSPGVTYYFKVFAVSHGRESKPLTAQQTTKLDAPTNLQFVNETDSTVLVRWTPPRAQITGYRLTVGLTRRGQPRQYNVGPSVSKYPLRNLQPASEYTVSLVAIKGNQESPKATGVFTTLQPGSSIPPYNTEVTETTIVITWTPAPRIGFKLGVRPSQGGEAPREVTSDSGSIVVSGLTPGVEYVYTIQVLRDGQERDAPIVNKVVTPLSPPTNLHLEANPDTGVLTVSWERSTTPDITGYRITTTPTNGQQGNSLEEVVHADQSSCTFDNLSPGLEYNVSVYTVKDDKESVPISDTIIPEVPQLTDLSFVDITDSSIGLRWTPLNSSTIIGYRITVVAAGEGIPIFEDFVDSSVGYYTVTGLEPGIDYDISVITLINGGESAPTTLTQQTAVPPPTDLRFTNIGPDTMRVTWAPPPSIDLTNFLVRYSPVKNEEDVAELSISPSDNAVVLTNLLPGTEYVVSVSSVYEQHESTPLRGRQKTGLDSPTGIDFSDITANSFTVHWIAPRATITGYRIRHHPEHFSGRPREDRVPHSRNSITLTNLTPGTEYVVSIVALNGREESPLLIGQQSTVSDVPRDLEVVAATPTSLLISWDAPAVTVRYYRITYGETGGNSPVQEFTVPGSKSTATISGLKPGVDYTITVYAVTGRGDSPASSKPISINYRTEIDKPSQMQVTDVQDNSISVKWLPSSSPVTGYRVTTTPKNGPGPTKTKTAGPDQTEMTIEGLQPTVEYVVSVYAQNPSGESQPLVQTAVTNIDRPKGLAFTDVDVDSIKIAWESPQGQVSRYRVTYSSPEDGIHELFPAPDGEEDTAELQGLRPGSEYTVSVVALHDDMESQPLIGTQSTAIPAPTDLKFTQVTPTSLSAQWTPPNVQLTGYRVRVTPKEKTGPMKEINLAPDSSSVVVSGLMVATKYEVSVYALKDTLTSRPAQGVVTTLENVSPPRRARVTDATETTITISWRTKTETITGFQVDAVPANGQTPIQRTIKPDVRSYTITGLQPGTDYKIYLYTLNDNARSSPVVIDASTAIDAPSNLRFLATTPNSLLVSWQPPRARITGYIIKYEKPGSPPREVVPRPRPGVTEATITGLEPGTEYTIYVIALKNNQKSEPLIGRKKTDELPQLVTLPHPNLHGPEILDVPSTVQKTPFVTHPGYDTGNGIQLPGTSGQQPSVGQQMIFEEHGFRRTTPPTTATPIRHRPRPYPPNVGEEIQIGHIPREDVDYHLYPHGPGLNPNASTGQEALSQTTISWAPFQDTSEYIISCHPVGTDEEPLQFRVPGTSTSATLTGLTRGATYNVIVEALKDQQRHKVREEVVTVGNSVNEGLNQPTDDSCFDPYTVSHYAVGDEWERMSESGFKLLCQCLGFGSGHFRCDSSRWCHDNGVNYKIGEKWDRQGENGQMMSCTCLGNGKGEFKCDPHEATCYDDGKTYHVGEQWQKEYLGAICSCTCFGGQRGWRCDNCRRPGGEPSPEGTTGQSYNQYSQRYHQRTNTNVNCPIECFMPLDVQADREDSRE

For “KDEPQRETLKAIHYALNCCGLAGGVEQFISDICPKKDV [peptide 5b]”, the “blocking of mAb7 binding to cell surface CD9” value (“blocking of mAb7 binding” below) [1] was “blocked mAb7 binding to soluble CD9 and to CD9 on intact cells” and the “effect on adhesive phenotype of CHO A6 cells on FN” value (from here on “effect on adhesive phenotype”) (CHO A6 cells) was “equivalent to that of CHO MOCK cells; also recorded: reversed the adhesive phenotype; also recorded: reversed the inhibitory influence of CD9”.

In the case of YKDTYNKLKTKDEPQRETLKAI [peptide 5], the “soluble FN binding to immobilized peptide compared to intact platelet purified CD9” value (FN [2]) is reported as 19%, the “blocking of mAb7 binding” value [1] is reported as “neither peptide 5a nor 5 blocked” and the “effect on adhesive phenotype” value (CHO A6 cells) is reported as “no effect”.

Compound `NC(=O)NO` [hydroxyurea] has an inhibition at 5000 µM (human coronary SMCs [3]) greater than 99%.

In the case of “CD9: purified platelet CD9, 24 kDa integral membrane glycoprotein (SEQ ID NO: 1)”, the “half-maximal binding of soluble FN to immobilized CD9” value (FN [2]; 2.5 mM CaCl2, FN concentration) is reported as 35.6 µg/mL, the EC50 (FN [2]; 2.5 mM CaCl2, FN concentration, read-out: half-maximal binding of soluble FN to immobilized CD9) is reported as 0.081 µM and the EC50 (FN [2]; [6]) is reported as 0.081 µM. The Kd (FN [2]; platelet-derived or recombinant CD9, read-out: affinity of FN-CD9 interaction) was 0.08 µM and the “association between captured FN and purified CD9” value (FN [4]) was “specific association”.

For “His6-rCD9: bacterially expressed histidine tagged recombinant CD9”, the EC50 (FN [2]; [6]) was 0.12 µM and the “binding to FN lower than for purified CD9 (absolute ELISA values)” value (FN [2]; versus purified platelet CD9) was 40%.

For PKKDVLETFTVKSCPDAI [peptide 6a], the “blocking of mAb7 binding” value [1] was “blocked mAb7 binding” and the “effect on adhesive phenotype” value (CHO A6 cells) was “equivalent to that of CHO MOCK cells; also recorded: reversed the inhibitory influence of CD9”.

In the case of PKKDVLETFTVKSCPDAIKEVFDNK [peptide 6], the “direct binding of FN” value (FN [2]) is reported as “binds directly”, the “soluble FN binding to immobilized peptide compared to intact platelet purified CD9” value (FN [2]) is reported as 65% and the “inhibition of FN binding to CD9” value (FN-CD9 binding; peptide 0-160 μM) is reported as “significantly inhibited; also recorded: competitively inhibited binding of FN to purified CD9 in a dose-dependent fashion; also recorded: partially inhibited”. The “peptide concentration at maximal inhibition of FN binding to CD9” value (FN-CD9 binding; titration 0-160 μM) was 60 µM, the “effect on CD9-CHO-B2 cell adhesion to FN” value (CD9-CHO-B2 cells) was “able to block” and the “effect on CD9-CHO-B2 cell adhesion to FN” value (CD9-CHO-B2 cells; listed as Peptide 6) was “inhibited the adhesion level of CD9-CHO-B2 cells on FN to that seen with Mock-CHO-B2 cells”. For the same compound, the “effect on CD9-mediated CHO cell motility to FN” value (CD9-CHO cells) was “competitively inhibited”, the “blocking of mAb7 binding” value [1] was “blocked mAb7 binding to soluble CD9 and to CD9 on intact cells” and the “effect on adhesive phenotype” value (CHO A6 cells) was “reversed the adhesive phenotype”. The “effect on SMC migration” value (human coronary SMCs [5]) was “dose dependent inhibitory effect” and the “maximal inhibitory effect on serum-induced migration” value (human coronary SMCs [5]; at 40 μM) was roughly 65%.

In the case of YSHKDEVIKEVQEFYKDTYNKLKT [peptide 5a], the “blocking of mAb7 binding” value [1] is reported as “neither peptide 5a nor 5 blocked”.

With `[Ca+2].[Cl-].[Cl-]` [CaCl2] the “effect of cation on CD9/FN interaction” value (FN/CD9 interaction) was “stimulated”.

In the case of “KEFDFKAPSVCKVEDIDTKTL [peptide 6S, reference compound]”, the “effect on CD9-CHO-B2 cell adhesion to FN” value (CD9-CHO-B2 cells) is reported as “no significant effect” and the “effect on CD9-mediated CHO cell motility to FN” value (CD9-CHO cells) is reported as “lack of inhibition”.
